IC50 and ED50 data for eight molecules are collected here from patent US4613610A, “Cholesterol biosynthesis inhibiting pyrazole analogs of mevalonolactone and its derivatives” (Sandoz Pharmaceuticals Corp., priority 1985, dated 1986).

In assay [1] the target is T1, HMG-CoA reductase (Rattus norvegicus, UniProt P51639).
T1 construct: the microsomes are the source of the HMG-CoA reductase enzyme; from tissue; host or cells: liver microsomes of male Sprague-Dawley rats (150-225 g)
T1 sequence (P51639 1-887): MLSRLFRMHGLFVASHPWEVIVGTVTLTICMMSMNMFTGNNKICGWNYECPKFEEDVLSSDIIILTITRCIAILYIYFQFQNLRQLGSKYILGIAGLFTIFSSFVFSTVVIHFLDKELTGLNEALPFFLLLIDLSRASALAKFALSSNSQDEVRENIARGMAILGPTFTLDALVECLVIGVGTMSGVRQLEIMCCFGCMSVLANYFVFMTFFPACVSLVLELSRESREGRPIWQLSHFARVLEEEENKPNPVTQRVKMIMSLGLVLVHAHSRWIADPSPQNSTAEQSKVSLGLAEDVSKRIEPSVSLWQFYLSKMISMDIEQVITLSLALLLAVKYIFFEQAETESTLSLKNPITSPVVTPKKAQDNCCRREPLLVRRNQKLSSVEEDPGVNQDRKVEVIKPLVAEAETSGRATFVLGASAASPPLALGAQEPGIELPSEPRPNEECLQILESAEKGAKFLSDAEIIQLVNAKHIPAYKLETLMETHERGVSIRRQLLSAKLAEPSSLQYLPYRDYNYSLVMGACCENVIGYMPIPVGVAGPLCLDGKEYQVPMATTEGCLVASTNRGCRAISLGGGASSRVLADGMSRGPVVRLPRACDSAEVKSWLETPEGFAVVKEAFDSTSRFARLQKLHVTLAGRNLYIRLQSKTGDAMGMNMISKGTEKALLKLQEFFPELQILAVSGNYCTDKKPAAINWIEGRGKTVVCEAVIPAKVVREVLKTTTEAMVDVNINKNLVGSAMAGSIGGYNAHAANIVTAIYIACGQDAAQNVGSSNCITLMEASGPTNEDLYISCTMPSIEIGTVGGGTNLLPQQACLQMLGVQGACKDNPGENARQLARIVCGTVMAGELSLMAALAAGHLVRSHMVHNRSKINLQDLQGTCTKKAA
Description: Test A. In Vitro Microsomal Assay of HMG-CoA Reductase Inhibition. The assay is classed as biochemical, rat (male Sprague-Dawley rat liver microsomes). The protocol: Test A. In Vitro Microsomal Assay of HMG-CoA Reductase Inhibition:
200 μl. aliquots (1.08-1.50 mg./ml.) of rat liver microsomal suspensions, freshly prepared from male Sprague-Dawley rats (150-225 g. body weight), in Buffer A with 10 mmol. dithiothreitol are incubated with 10 μl. of a solution of the test substance in dimethylacetamide and assayed for HMG-CoA reductase activity as described in Ackerman et al., J. Lipid Res. 18, 408-413 (1977), the concentration of the test substance in the assay system being 0.0001-2,000 μmolar. In the assay the microsomes are the source of the HMG-CoA reductase enzyme which catalyzes the reduction of HMG-CoA to mevalonate. The assay employs a chloroform extraction to separate the product, [^14 C]mevalonolactone, formed by the HMG-CoA reductase recution of the substrate, [^14 C]HMG-CoA. [^3 H]mevalonolactone is added as an internal reference. Inhibition of HMG-CoA reductase is calculated from the decrease in specific activity ([^14 C/^3 H]mevalonate) of test groups compared to controls.
IC50 is the concentration of the test substance in the assay system calculated or observed to produce a 50% inhibition of HMG-CoA reductase activity.
A general note: Microsomes from liver hold many membrane-bound enzymes, among them those of drug oxidation.

Assay [2] concerns 3β-hydroxysterol synthesis (cholesterol biosynthesis). Description: Test B. In Vivo Cholesterol Biosynthesis Inhibition Test. Also noted: species or system rat (male Wistar Royal Hart). The following applies: Rattus norvegicus, read-out: ED50 (50% inhibition of 3β-hydroxysterol synthesis).
Description: In vivo studies utilize male Wistar Royal Hart rats weighing 150±20 g. which have been kept for 7-10 days on an altered light cycle (6:30 A.M.-6:30 P.M. dark) housed two per cage and fed powdered Purina Rat Chow and water ad libitum. Three hours before the diurnal maximum of cholesterol synthesis at mid-dark, the rats are orally administered the test substance (e.g., 0.01-200 mg./kg. body weight) dissolved or as a suspension in 0.5% carboxymethylcellulose in a volume of 1 ml./100 g. body weight. Controls receive vehicle alone. One hour after receiving the test substance (or the vehicle alone), the rats are injected intraperitoneally with about 25 μCi/100 g. body weight of sodium [1-^14 C]acetate 1-3 mCi/mmol. Two hours after mid-dark, blood samples are obtained under sodium hexobarbitol anesthesia, and the serum is separated by centrifugation.
Serum samples are saponified and neutralized, and the 3β-hydroxysterols are precipitated with digitonin basically as described in Sperry et al., J. Biol. Chem. 187, 97 (1950). The [^14 C]digitonides are then counted by liquid scintillation spectrometry. After correcting for efficiencies, the results are calculted in nCi (nanocuries)of 3β-hydroxysterol formed per 100 ml. of serum. Inhibition of 3β-hydroxysterol synthesis is calculated from the reduction in the nCi of 3β-hydroxysterols formed from test groups compared to controls.
ED50 is the dose of the test substance calculated or observed to produce a 50% inhibition of 3β-hydroxysterol synthesis.
The mark [3] stands for this setting: rat liver microsomal suspensions, test substance 0.0001-2,000 μmolar, calculated or observed, read-out: IC50 (50% inhibition of HMG-CoA reductase activity).
[4] abbreviates: male rats, oral, in 0.5% carboxymethylcellulose, [1-14C]acetate i.p. 1 h later, serum, calculated or observed.

Read-outs that look alike come from different tables or passages of the source.

On to `CC(C)n1nc(-c2ccccc2)c(-c2ccc(F)cc2)c1/C=C/[C@@H](O)C[C@@H](O)CC(=O)O` (relative stereo) [Example 7, Sodium erythro-(E)-3,5-dihydroxy-7-[4'-(4"-fluorophenyl)-1'-(1"-methylethyl)-3'-phenyl-1H-pyrazol-5'-yl]hept-6-enoate], for which the IC50 (commonly the point on the concentration scale where inhibition reaches its midpoint) in assay [1] (setting [3]) is 40 nM. The ED50 (in general, the midpoint of the dose-response relation) in assay [2] (setting [4]) was 0.06 mg/kg.
In the case of `CC(C)c1c(/C=C/[C@@H]2C[C@@H](O)CC(=O)O2)c(-c2ccc(F)cc2)nn1-c1ccccc1` (relative stereo) [Example 11, (E)-Trans-6-(2'-[3"-(4'"-fluorophenyl)-5"-(1'"-methylethyl)-1"-phenyl-1H-pyrazol-4"-yl]ethenyl)-4-hydroxy-3,4,5,6-tetrahydro-2H-pyran-2-one], in assay [1] (setting [3]), the half-maximal inhibitory concentration (IC50) was 260 nM.
`CC(C)c1nn(-c2ccccc2)c(-c2ccc(F)cc2)c1/C=C/[C@@H](O)C[C@@H](O)CC(=O)O` (relative stereo) [Example 14, Sodium erythro-(±)-(E)-3,5-dihydroxy-7-[5'-(4"-fluorophenyl)-3'-(1"-methylethyl)-1'-phenyl-1H-pyrazol-4'-yl]hept-6-enoate]: in assay [1] (setting [3]), the IC50 is 20 nM. The ED50 in assay [2] (setting [4]) is 0.013 mg/kg.
In the case of `CC[C@H](C)C(=O)O[C@H]1CCC=C2C=C[C@H](C)[C@H](CC[C@@H]3C[C@@H](O)CC(=O)O3)[C@H]21` [Compactin, reference compound], the 50% effective dose (ED50) in assay [2] (setting [4]) was 3.5 mg/kg.
On to `CC(C)n1nc(-c2ccccc2)c(-c2ccc(F)cc2)c1/C=C/[C@@H]1C[C@@H](O)CC(=O)O1` [Example 1, (E)-Trans-6S-(2'-[4"-(4'"-fluorophenyl)-1"-(1'"-methylethyl)-3"-phenyl-1H-pyrazol-5"-yl]ethenyl)-4R-hydroxy-3,4,5,6-tetrahydro-2H-pyran-2-one], for which the IC50 in assay [1] (setting [3]) is 80 nM.
Same read-out and setting: to `CC(C)n1nc(-c2ccccc2)c(-c2ccc(F)cc2)c1/C=C\[C@@H]1C[C@@H](O)CC(=O)O1` [Example 2, (Z)-Trans-6S-(2'-[4"-(4'"-fluorophenyl)-1"-(1'"-methylethyl)-3"-phenyl-1H-pyrazol-5"-yl]ethenyl)-4R-hydroxy-3,4,5,6-tetrahydro-2H-pyran-2-one] belongs 103000 nM.
Take `CC(C)n1nc(-c2ccccc2)c(-c2ccc(F)cc2)c1/C=C/[C@@H](O)C[C@@H](O)CC(=O)O` [Example 3, Sodium erythro-(E)-3R,5S-dihydroxy-7-[4'-(4"-fluorophenyl)-1'-(1"-methylethyl)-3'-phenyl-1H-pyrazol-5'-yl]hept-6-enoate]: the IC50 in assay [1] (setting [3]) is 60 nM. For the same molecule, the ED50 in assay [2] (setting [4]) is 0.05 mg/kg.
Turning to `CC[C@H](C)C(=O)O[C@H]1C[C@@H](C)C=C2C=C[C@H](C)[C@H](CC[C@@H]3C[C@@H](O)CC(=O)O3)[C@H]21` [Mevinolin, reference compound], in assay [1], the IC50 came out at 140 nM. Besides, the ED50 in assay [2] (po, 1 h) is 0.41 mg/kg.
